Test results: the supplement of paper PMC10307832

Experiments:
Test in all cases: relative viability (nuclei count vs DMSO), 5 days (fraction); higher = more cells survive
NCI-H358 = test system: NCI-H358
Procedure, shortened: (§1)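 Cells from lung cancer lines were seeded into 1536-well plates and, one day later, dosed by pin tool. Treatments were either a single drug or a fixed dose of an anchor drug with five library-drug doses (not always all listed) in √10 steps. After 5 days, nuclei were stained in a one-step fixation (final 0.05% Triton X-100, 1% formaldehyde, 1 ug/ml Hoechst) and counted on 4× images, and relative viability is the treated-to-vehicle nuclei ratio, as the median of duplicate plates.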

EKVX = test system: EKVX
Procedure, shortened: as §1

NCI-H838 = test system: NCI-H838
Procedure, shortened: as §1

LOU-NH91 = test system: LOU-NH91
Procedure, shortened: as §1

NCI-H2023 = test system: NCI-H2023
Procedure, shortened: as §1

CAL-12T = test system: CAL-12T
Procedure, shortened: as §1

NCI-H1651 = test system: NCI-H1651
Procedure, shortened: as §1

NCI-H1437 = test system: NCI-H1437
Procedure, shortened: as §1

NCI-H460 = test system: NCI-H460
Procedure, shortened: as §1

NCI-H1563 = test system: NCI-H1563
Procedure, shortened: as §1

NCI-H1395 = test system: NCI-H1395
Procedure, shortened: as §1

Work on `COc1cc(N2CCC(C(N)=O)CC2)ccc1Nc1nc(N)c(Cl)c(Nc2ccccc2S(=O)(=O)C(C)C)n1` [HG-5-88-01] + C[C@]1(O)C[C@@H](c2nc(-c3ccc4ccc(-c5ccccc5)nc4c3)c3c(N)nccn32)C1 [Linsitinib] (partner 1 µM) yielded a relative viability (NCI-H358; first compound 0.04 µM) of 0.696, a relative viability (NCI-H358; first compound 0.1265 µM) of 0.707 and a relative viability (NCI-H358; first compound 0.4 µM) of 0.625. For the same molecule, the relative viability (NCI-H358; first compound 1.265 µM) was 0.484, the relative viability (NCI-H358; first compound 4 µM) was 0.387 and the relative viability (EKVX; first compound 0.04 µM) was 0.972. For the same molecule, the relative viability (EKVX; first compound 0.1265 µM) was 1.11, the relative viability (EKVX; first compound 0.4 µM) was 0.889 and the relative viability (EKVX; first compound 4 µM) was 1.03. For the same molecule, the relative viability (NCI-H838; first compound 0.04 µM) was 0.972, the relative viability (NCI-H838; first compound 0.1265 µM) was 1.07 and the relative viability (NCI-H838; first compound 0.4 µM) was 0.885. For the same molecule, the relative viability (NCI-H838; first compound 1.265 µM) was 0.915, the relative viability (NCI-H838; first compound 4 µM) was 0.956 and the relative viability (LOU-NH91; first compound 0.04 µM) was 1. It also gave a relative viability (LOU-NH91; first compound 0.1265 µM) of 0.916, a relative viability (LOU-NH91; first compound 0.4 µM) of 0.841 and a relative viability (LOU-NH91; first compound 1.265 µM) of 0.609. The relative viability (LOU-NH91; first compound 4 µM) was 0.659, the relative viability (NCI-H2023; first compound 0.04 µM) was 0.695 and the relative viability (NCI-H2023; first compound 0.1265 µM) was 0.683. For the same molecule, the relative viability (NCI-H2023; first compound 0.4 µM) was 0.619, the relative viability (NCI-H2023; first compound 1.265 µM) was 0.539 and the relative viability (NCI-H2023; first compound 4 µM) was 0.762. The relative viability (CAL-12T; first compound 0.04 µM) was 0.773, the relative viability (CAL-12T; first compound 0.1265 µM) was 0.592 and the relative viability (CAL-12T; first compound 0.4 µM) was 0.78. It also gave a relative viability (CAL-12T; first compound 1.265 µM) of 0.561, a relative viability (CAL-12T; first compound 4 µM) of 0.726 and a relative viability (NCI-H1651; first compound 0.04 µM) of 1.02. For the same molecule, the relative viability (NCI-H1651; first compound 0.1265 µM) was 1.09, the relative viability (NCI-H1651; first compound 0.4 µM) was 0.991 and the relative viability (NCI-H1651; first compound 1.265 µM) was 1.07. For the same molecule, the relative viability (NCI-H1651; first compound 4 µM) was 1.19, the relative viability (NCI-H1437; first compound 0.04 µM) was 1.04 and the relative viability (NCI-H1437; first compound 0.1265 µM) was 1.04. For the same molecule, the relative viability (NCI-H1437; first compound 0.4 µM) was 0.926, the relative viability (NCI-H1437; first compound 1.265 µM) was 0.996 and the relative viability (NCI-H1437; first compound 4 µM) was 1.18. For the same molecule, the relative viability (NCI-H460; first compound 0.04 µM) was 0.73, the relative viability (NCI-H460; first compound 0.1265 µM) was 0.81 and the relative viability (NCI-H460; first compound 0.4 µM) was 0.784. For the same molecule, the relative viability (NCI-H460; first compound 1.265 µM) was 0.81, the relative viability (NCI-H460; first compound 4 µM) was 1.41 and the relative viability (NCI-H1563; first compound 0.04 µM) was 1.1. It also gave a relative viability (NCI-H1563; first compound 0.1265 µM) of 1.17, a relative viability (NCI-H1563; first compound 0.4 µM) of 1.23 and a relative viability (NCI-H1563; first compound 1.265 µM) of 1.21. The relative viability (NCI-H1563; first compound 4 µM) was 1.21, the relative viability (NCI-H1395; first compound 0.04 µM) was 1.13 and the relative viability (NCI-H1395; first compound 0.1265 µM) was 1.02. The relative viability (NCI-H1395; first compound 0.4 µM) was 1.07, the relative viability (NCI-H1395; first compound 1.265 µM) was 0.856 and the relative viability (NCI-H1395; first compound 4 µM) was 1.09.
